This is an account of results in ChEMBL document CHEMBL1649420, “Identifying chelators for metalloprotein inhibitors using a fragment-based approach” (J Med Chem, 2011).

Assay [1] concerns the target 72 kDa type IV collagenase (Homo sapiens, UniProt P08253). The following applies: at 1 mM.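 Further: recombinant human enzyme, inhibition read after a 30 min incubation.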
For assay [2], the target named is T1, Tyrosinase (Agaricus bisporus) (UniProt O42713).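 Further: inhibition measured at 10 min.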
T1 sequence (whole entry): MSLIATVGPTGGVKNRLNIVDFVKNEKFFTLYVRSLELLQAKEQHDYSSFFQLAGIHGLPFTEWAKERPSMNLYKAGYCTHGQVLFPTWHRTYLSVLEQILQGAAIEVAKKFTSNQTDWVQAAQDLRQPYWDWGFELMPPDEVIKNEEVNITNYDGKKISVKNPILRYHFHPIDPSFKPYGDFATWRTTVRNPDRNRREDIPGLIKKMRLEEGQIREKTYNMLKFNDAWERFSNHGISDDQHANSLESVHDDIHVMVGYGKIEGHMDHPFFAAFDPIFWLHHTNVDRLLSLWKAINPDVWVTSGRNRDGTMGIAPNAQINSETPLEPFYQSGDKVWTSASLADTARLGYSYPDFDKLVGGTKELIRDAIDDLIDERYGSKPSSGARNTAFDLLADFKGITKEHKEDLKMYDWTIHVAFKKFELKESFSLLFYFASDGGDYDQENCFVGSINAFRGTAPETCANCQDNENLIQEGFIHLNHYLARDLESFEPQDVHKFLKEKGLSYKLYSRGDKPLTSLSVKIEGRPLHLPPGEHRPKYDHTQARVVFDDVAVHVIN
The following applies: at 1 mM.

In assay [3] the target is Neutrophil collagenase (Homo sapiens) (UniProt P22894). The following applies: at 1 mM.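 Further: recombinant human MMP8 enzyme, percent inhibition read after 30 min.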
Assay [4] concerns the target T2, Lethal factor (Bacillus anthracis) (UniProt P15917).
T2 sequence (whole entry): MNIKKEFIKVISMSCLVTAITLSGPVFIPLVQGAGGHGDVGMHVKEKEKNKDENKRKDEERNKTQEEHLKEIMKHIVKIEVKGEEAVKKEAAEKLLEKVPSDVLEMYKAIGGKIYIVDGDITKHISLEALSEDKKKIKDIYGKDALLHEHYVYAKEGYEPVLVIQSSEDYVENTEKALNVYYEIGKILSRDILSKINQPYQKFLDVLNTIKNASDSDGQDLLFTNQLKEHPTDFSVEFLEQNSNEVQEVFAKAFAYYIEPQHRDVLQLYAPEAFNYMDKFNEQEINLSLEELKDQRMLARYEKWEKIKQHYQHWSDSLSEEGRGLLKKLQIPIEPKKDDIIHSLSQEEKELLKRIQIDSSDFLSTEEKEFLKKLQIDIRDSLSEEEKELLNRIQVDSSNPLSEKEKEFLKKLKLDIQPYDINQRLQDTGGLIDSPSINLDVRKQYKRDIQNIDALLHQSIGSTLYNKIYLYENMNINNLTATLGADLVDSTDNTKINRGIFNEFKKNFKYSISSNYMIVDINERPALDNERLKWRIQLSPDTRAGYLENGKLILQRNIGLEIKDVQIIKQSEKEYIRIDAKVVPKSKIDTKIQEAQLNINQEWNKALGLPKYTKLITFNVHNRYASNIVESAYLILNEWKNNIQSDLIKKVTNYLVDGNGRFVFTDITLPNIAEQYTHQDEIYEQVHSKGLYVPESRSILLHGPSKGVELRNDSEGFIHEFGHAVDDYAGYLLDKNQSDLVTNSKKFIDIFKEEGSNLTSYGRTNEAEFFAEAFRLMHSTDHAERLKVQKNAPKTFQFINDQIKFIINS
The conditions noted are these: at 1 mM.

Assay [5] deals with T3, Nitric oxide synthase, inducible (Mus musculus) (UniProt P29477).
T3 sequence (whole entry): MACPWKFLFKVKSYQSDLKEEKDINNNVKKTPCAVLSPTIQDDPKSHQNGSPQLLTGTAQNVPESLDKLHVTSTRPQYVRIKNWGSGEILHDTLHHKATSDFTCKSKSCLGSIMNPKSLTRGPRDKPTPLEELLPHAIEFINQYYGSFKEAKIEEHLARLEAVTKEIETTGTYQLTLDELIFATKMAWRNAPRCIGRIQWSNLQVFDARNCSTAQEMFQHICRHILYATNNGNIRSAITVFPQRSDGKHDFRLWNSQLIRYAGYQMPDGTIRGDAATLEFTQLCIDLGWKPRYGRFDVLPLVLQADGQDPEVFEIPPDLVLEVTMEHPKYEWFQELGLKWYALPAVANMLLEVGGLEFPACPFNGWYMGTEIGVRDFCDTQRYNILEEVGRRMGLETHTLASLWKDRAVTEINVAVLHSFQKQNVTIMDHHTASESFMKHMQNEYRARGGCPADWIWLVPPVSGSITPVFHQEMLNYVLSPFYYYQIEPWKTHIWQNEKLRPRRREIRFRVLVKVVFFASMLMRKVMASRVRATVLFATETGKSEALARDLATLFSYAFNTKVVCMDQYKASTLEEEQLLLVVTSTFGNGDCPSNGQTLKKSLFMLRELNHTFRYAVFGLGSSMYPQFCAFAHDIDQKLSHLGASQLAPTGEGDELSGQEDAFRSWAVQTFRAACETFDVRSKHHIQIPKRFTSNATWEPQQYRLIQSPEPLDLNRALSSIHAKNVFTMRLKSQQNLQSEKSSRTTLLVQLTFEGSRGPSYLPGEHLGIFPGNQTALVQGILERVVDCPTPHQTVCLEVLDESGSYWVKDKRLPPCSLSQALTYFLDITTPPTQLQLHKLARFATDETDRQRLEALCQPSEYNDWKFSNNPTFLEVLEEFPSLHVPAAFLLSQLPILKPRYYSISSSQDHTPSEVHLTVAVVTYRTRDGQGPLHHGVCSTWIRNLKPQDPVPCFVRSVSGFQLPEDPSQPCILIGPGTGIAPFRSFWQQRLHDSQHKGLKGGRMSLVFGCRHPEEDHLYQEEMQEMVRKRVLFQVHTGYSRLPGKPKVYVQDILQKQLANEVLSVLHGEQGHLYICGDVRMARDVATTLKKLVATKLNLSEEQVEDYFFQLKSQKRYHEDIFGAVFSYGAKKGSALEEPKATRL
The following applies: at 1 mM.

In assay [6] the target is Stromelysin-1 (Homo sapiens) (UniProt P08254). The conditions noted are these: at 1 mM.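 Further: recombinant enzyme, inhibition read after a 30 min incubation.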
The target of assay [7] is T4, Interstitial collagenase (Homo sapiens) (UniProt P03956).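 Further: recombinant human enzyme, with inhibition measured after 30 min.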
T4 sequence (whole entry): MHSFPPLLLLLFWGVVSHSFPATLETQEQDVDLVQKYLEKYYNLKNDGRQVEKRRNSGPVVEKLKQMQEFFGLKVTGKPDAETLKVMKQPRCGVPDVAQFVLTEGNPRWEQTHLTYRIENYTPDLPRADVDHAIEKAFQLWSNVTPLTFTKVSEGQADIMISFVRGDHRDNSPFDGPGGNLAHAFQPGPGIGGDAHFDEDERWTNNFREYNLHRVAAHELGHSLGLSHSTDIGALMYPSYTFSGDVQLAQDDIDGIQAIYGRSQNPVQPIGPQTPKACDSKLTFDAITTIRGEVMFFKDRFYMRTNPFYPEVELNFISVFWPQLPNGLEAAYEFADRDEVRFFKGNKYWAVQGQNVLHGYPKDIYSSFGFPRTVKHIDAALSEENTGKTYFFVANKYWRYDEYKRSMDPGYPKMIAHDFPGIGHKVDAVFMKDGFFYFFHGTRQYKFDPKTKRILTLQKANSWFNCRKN
The conditions noted are these: at 1 mM.

Assay [8] deals with Matrix metalloproteinase-9 (Homo sapiens) (UniProt P14780). The conditions noted are these: at 1 mM.
Assay [9] has as its target T5, Polyunsaturated fatty acid 5-lipoxygenase (Homo sapiens) (UniProt P09917).
T5 sequence (whole entry): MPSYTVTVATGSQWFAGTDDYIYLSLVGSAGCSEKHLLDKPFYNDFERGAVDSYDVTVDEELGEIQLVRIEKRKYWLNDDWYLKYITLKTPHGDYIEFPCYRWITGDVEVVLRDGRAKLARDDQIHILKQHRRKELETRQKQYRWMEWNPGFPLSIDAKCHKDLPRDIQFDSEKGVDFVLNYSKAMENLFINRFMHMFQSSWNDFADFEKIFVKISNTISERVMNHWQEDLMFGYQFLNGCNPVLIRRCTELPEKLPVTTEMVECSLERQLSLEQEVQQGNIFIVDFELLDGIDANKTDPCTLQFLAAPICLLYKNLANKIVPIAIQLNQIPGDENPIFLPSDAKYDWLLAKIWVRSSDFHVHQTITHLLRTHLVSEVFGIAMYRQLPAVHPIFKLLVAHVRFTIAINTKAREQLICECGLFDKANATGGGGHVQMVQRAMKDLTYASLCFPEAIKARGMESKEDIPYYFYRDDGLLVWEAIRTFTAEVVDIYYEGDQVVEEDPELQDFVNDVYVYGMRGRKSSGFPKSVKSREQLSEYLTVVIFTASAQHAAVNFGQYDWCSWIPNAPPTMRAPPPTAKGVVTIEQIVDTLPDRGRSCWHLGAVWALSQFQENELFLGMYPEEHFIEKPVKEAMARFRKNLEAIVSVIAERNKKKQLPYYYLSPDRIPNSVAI
The assay is described as follows: Inhibition of human recombinant 5-lipoxygenase at 1 mM after 10 mins by fluorescence assay.

Each structure is given as a SMILES string.

72 kDa type IV collagenase, sequence (P08253 110-660 limits assumed): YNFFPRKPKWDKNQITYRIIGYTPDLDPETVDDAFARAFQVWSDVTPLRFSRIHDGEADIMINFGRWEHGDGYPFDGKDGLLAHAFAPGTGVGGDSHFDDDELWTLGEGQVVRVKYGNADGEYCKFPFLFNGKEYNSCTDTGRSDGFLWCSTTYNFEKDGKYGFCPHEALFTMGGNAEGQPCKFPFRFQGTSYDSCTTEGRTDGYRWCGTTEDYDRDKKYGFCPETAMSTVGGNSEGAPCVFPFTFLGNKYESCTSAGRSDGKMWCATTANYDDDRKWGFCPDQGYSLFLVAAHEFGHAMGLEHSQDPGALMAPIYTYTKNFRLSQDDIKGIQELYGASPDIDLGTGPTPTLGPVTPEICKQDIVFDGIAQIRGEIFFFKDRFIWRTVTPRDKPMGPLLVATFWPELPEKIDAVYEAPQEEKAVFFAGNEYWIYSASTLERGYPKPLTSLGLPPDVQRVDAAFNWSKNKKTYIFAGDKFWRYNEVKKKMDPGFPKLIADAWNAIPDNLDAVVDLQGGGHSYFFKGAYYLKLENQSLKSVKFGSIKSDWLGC
Stromelysin-1 (Homo sapiens), sequence (P08254 100-477 limits assumed): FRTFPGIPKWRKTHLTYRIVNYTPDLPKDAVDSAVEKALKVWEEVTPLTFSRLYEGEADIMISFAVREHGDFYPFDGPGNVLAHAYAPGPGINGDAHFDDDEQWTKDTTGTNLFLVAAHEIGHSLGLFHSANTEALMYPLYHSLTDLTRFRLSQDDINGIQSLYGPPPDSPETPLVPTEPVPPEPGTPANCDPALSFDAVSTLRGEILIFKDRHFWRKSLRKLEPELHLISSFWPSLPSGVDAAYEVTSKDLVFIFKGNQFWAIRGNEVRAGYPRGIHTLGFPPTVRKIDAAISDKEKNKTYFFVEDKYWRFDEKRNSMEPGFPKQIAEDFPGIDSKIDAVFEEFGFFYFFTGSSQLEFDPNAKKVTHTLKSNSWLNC
Matrix metalloproteinase-9 (Homo sapiens), sequence (P14780 whole entry): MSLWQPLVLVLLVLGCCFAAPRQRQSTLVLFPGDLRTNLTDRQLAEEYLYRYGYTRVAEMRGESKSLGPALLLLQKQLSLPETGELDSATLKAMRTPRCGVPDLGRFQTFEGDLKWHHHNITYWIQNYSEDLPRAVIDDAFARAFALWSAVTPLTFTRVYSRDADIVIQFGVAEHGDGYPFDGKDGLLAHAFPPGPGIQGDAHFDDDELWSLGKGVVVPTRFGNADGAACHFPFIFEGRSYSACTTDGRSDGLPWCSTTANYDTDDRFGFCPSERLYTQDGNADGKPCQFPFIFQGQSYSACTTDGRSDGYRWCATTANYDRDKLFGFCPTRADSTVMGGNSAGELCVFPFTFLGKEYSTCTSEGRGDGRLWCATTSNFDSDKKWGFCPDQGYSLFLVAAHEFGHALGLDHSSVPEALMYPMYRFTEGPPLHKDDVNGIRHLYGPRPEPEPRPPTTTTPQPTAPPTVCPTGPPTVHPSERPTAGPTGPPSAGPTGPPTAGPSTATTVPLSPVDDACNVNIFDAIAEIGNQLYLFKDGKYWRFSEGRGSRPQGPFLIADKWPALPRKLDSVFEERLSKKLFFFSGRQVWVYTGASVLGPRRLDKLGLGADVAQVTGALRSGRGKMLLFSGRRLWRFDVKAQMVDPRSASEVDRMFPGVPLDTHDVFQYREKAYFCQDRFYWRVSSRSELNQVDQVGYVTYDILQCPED
Neutrophil collagenase (Homo sapiens), sequence (P22894 101-467 limits assumed): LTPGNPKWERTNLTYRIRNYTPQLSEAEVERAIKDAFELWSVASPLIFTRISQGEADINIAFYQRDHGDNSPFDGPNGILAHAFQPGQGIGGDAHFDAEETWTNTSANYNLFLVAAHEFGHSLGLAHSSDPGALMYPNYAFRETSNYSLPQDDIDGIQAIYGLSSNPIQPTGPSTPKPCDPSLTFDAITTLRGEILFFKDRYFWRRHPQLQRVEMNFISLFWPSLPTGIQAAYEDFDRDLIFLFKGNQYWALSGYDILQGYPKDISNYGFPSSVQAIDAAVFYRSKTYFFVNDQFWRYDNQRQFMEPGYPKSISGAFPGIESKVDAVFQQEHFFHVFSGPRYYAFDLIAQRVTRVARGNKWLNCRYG

Consider `Cc1cc(=O)c(O)c(CO)o1`, for which the inhibition (as a rule, the drop in the measured response relative to a control, in per cent) in [1] is 45%; in [2], 11%; in assay [3] it was 53%; in [4], 14%; in [5] it was 9%; in [6], 47%. The inhibition in [7] turned out to be 60%; in [8] it was 44%.

Consider `CCc1occc(=O)c1O`, for which the inhibition is 33% in assay [1]; -7% in [2]; 34% in [3]; 25% in [4]; 8% in assay [5]; 38% in [6]. In addition, the inhibition in assay [7] was 39%; in [8] it was 28%.

As to `O=C(O)c1ccc(O)cc1O`, the inhibition in [1] was -7%; in assay [2], 91%; in [3], -1%; in [4], 7%; in assay [5] it was 16%; in assay [6] it was 3%. Moreover, the inhibition in assay [7] was 14%; in assay [8], -8%.

Take `Cc1occc(=O)c1O`: the inhibition in [1] was 38%; in assay [2] it was -6%; in assay [3] it was 19%; in assay [4], 19%; in [5], 6%; in assay [6], 34%. In addition, the inhibition in assay [7] stood at 41%; in assay [8], 32%.

On to `Cc1cc(C)nc(S)n1`, for which the inhibition in assay [1] came out at 55%; in assay [2], 99%; in assay [3], 49%; in assay [4] it was 15%; in [6], 70%; in assay [7], 56%. Besides, the results for the inhibition in [9] and in assay [8] were 80% and 56%, respectively.

Consider `Oc1cc(O)nc(S)n1`, for which the inhibition came to 17% in assay [1]; 99% in assay [2]; 25% in assay [3]; 18% in [4]; 38% in assay [6]; 30% in assay [7]. In addition, the inhibition came to 72% in assay [9] and 15% in assay [8].

As to `O=C(O)c1cccc(=O)n1O`, the inhibition in assay [1] was 60%; in assay [2], 94%; in assay [3], 89%; in [4], 47%; in assay [5], -5%; in assay [6], 86%. Moreover, the inhibition came to 84% in assay [7] and 66% in [8].

In the case of `O=C(O)c1ccc2ccccc2n1`, the inhibition stood at 37% in assay [1]; 58% in assay [2]; 29% in assay [3]; 45% in assay [4]; 11% in [5]; 73% in assay [6]. The inhibition in assay [7] was determined as 52%; in assay [8] it was 37%.

For `NC(=O)c1ccccc1O`, the inhibition in assay [1] was -1%; in [2] it was -8%; in assay [3], 24%; in [4] it was 0%; in assay [5] it was 14%; in assay [6], 1%. The inhibition in [7] stood at 21%; in [8], 23%.

Take `Cn1cccc(O)c1=S`: the inhibition came out at 100% in assay [1]; 93% in assay [2]; 96% in assay [3]; 56% in assay [4]; 90% in assay [6]; 89% in [7]. In addition, the inhibition in assay [9] is 93%; in assay [8], 96%.

With `O=C(O)c1ccc2cccc(O)c2n1`, the inhibition in [1] turned out to be 84%; in [2] it was 75%; in [3] it was 88%; in [4], 89%; in [5] it was 29%; in assay [6] it was 94%. The inhibition in assay [7] was 82%; in assay [8] it was 68%.

Regarding `Cc1c(O)c(=S)ccn1C`, the inhibition came out at 100% in [1]; 100% in assay [2]; 95% in assay [3]; 51% in assay [4]; 99% in assay [6]; 78% in [7]. The inhibition in assay [9] is 95%; in [8] it was 100%.
